Measured values reported in patent US9512086B2, “Compound for promoting apoptosis of cancer cells and a pharmaceutical composition containing the same and uses thereof” (National Chiao Tung University, priority 2014, dated 2016).
Entries after “also recorded” stand apart in the source; their conditions may differ.

Key:
[1] = system: survivin; test: Western blot of survivin protein expression in A549 cells; settings: 0 to 40 μM, 24 hours
Method: (§3) The protease inhibitors including 1 μg/ml aprotinin, 0.5 μg/ml leupeptin, and 100 μg/ml 4-(2-aminoethyl)benzenesulfonyl fluoride were added to the cell suspensions. The lysates were vibrated for 30 minutes at 4° C. and centrifuged at 10,000 rpm for 10 minutes. The protein concentrations were determined by the BCA protein assay kit (Pierce, Rockford, Ill.). […] The membranes were blocked overnight at 4° C. using blocking buffer (5% non-fat dried milk in solution containing 50 mM Tris/HCl (pH 8.0), 2 mM CaCl2, 80 mM NaCl, 0.05% Tween 20 and 0.02% sodium azide). The membranes were sequentially hybridized with primary antibody and followed with a horseradish peroxidase-conjugated secondary antibody. The protein bands were visualized on the X-ray film using the enhanced chemiluminescence detection system (PerkinElmer Life and Analytical Sciences, Boston, Mass.). […] To verify equal protein loading and transfer, actin was used as the protein loading control. The gel digitizing software, Un-Scan-It gel (Ver. 5.1, Silk Scientific, Inc., Orem, Utah), was used to analyze the intensity of protein bands on X-ray film.
(§4) A549 cells were plated at a density of 1×10^6 cells per 60-mm Petri dish in complete medium for 16 to 20 hours. […] To verify equal protein loading and transfer, actin was used as the protein loading control.

[2] = molecular target: T1, FGFR1 (fibroblast growth factor receptor-1) (Homo sapiens, UniProt P11362); test: KinaseProfiler assay, FGFR1; format: biochemical; settings: read-out: KAR value (kinase activity remaining)
T1 construct: purchased Merck Millipore (KinaseProfiler service)
Text: (§1) The kinase activity remaining (KAR) value is […] related to kinase activity. […]

[3] = system: A549 cell line; test: MTT cell viability, A549 cell line; format: cell-based, human
Method: The above cell lines were plated in 96-well plates at a density of 1×10^4 cells/well for 16 to 20 hours. […] After drug treatment, the cell lines were washed with phosphate-buffered saline (hereinafter referred to PBS), and were replaced with fresh complete RPMI-1640 medium for 2 days. Thereafter, the medium was replaced and the cells were incubated with 0.5 mg/ml of 3-(4,5-dimethylthiazol-2-yl)-2,5-diphenyltetrazolium bromide reagent (hereinafter referred to MTT, Sigma Chemical Co., St. Louis, Mo.) in complete RPMI-1640 medium for 4 hours. The viable cells converted MTT to formazan that generates a blue-purple color when dissolved in dimethyl sulfoxide (hereinafter referred to DMSO). The intensity of formazan was measured at 565 nm using a plate reader (VERSAmax, Molecular Dynamics, Sunnyvale, Calif.). The relative percentage of cell viability was calculated by dividing the absorbance of treated cells by that of the control in each experiment.
(§2) After drug treatment, the cells were washed with PBS and replaced with fresh complete RPMI-1640 medium for 2 days. Thereafter, the medium was replaced and the cells were incubated with 0.5 mg/mL of MTT reagent (Sigma Chemical Co., St. Louis, Mo.) in complete RPMI-1640 medium for 4 hours. The intensity of formazan was measured at 565 nm using a plate reader (VERSAmax, Molecular Dynamics, Sunnyvale, Calif.). The relative percentage of cell viability was calculated by dividing the absorbance of treated cells by that of the control in each experiment.

[4] = molecular target: T2, SYK (splenic tyrosine kinase) (Homo sapiens, UniProt P43405); test: KinaseProfiler assay, SYK; format: biochemical; settings: SYK; 10 μM; read-out: KAR value (kinase activity remaining)
T2 construct: purchased Merck Millipore (KinaseProfiler service)
Text: as §1

[5] = system: PARP; test: Western blot of cleaved PARP in A549 cells; settings: 10-40 μM, 24 hours
Method: as §3, §4

[6] = molecular target: T3, CHEK1 (checkpoint kinase-1) (Homo sapiens, UniProt O14757); test: KinaseProfiler assay, CHEK1; format: biochemical; settings: read-out: KAR value (kinase activity remaining)
T3 construct: purchased Merck Millipore (KinaseProfiler service)
Text: The kinase activity remaining (KAR) value is inversely related to kinase activity.

[7] = system: A549 cells; test: Cell cycle analysis, PI staining and flow cytometry; format: cell-based, human; settings: 24 hours
Method: After the treatment, the cells were collected and fixed with ice-cold 70% ethanol overnight at −20° C. After centrifugation at 1500 rpm for 5 minutes, the pellets were treated with 4 μg/ml PI solution containing 1% Triton X-100 and 50 μg/ml RNase at 37 °C for 30 minutes in the dark. To avoid cell aggregation, the cell solutions were filtrated through nylon membrane (Becton-Dickinson, San Jose, Calif.). Subsequently, the samples were analyzed by flow cytometry. For each measurement, 10,000 cells were analyzed for DNA content. The percentage of cell cycle phases was quantified by ModFit LT software (Ver. 2.0, Becton-Dickinson).

[8] = molecular target: T4, STK10 (lymphocyte-oriented kinase) (Homo sapiens, UniProt O94804); test: KinaseProfiler assay, STK10; format: biochemical; settings: read-out: KAR value (kinase activity remaining)
T4 construct: purchased Merck Millipore (KinaseProfiler service)
Text: as §1

[9] = MTT cell viability, HFL1 normal lung fibroblasts; format: cell-based; settings: human, HFL1 normal lung fibroblast cells, 0 to 40 μM
Method: as §2

[10] = molecular target: T5, MARK2 (PAR-1Ba) (Homo sapiens, UniProt Q7KZI7); test: KinaseProfiler assay, MARK2; format: biochemical; settings: MARK2; 10 μM; read-out: KAR value (kinase activity remaining)
T5 construct: purchased Merck Millipore (KinaseProfiler service)
Text: as §1

[11] = molecular target: T6, MAPK14 (stress-activated protein kinase-2a) (Homo sapiens, UniProt Q16539); test: KinaseProfiler assay, MAPK14; format: biochemical; settings: MAPK14; 10 μM; read-out: KAR value (kinase activity remaining)
T6 construct: purchased Merck Millipore (KinaseProfiler service)
Text: as §1

[12] = molecular target: T7, EGFR (epidermal growth factor receptor) (Homo sapiens, UniProt P00533); test: KinaseProfiler assay, EGFR; format: biochemical; settings: read-out: KAR value (kinase activity remaining)
T7 construct: purchased Merck Millipore (KinaseProfiler service)

[13] = molecular target: T8, CSNK2A1 (casein kinase-2) (Homo sapiens, UniProt P68400); test: KinaseProfiler assay, CSNK2A1; format: biochemical; settings: CSNK2A1; 10 μM; read-out: KAR value (kinase activity remaining)
T8 construct: purchased Merck Millipore (KinaseProfiler service)
Text: as §1

T6 sequence (Q16539 whole entry): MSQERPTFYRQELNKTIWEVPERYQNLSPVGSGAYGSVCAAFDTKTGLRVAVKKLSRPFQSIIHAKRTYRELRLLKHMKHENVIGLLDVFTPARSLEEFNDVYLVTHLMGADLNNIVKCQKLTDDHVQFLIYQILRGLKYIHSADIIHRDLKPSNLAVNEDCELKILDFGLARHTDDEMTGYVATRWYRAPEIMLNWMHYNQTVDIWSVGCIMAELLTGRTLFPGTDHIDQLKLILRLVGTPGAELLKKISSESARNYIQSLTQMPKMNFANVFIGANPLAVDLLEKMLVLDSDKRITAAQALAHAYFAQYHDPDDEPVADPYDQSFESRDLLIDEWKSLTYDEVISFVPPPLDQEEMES
T4 sequence (O94804 whole entry): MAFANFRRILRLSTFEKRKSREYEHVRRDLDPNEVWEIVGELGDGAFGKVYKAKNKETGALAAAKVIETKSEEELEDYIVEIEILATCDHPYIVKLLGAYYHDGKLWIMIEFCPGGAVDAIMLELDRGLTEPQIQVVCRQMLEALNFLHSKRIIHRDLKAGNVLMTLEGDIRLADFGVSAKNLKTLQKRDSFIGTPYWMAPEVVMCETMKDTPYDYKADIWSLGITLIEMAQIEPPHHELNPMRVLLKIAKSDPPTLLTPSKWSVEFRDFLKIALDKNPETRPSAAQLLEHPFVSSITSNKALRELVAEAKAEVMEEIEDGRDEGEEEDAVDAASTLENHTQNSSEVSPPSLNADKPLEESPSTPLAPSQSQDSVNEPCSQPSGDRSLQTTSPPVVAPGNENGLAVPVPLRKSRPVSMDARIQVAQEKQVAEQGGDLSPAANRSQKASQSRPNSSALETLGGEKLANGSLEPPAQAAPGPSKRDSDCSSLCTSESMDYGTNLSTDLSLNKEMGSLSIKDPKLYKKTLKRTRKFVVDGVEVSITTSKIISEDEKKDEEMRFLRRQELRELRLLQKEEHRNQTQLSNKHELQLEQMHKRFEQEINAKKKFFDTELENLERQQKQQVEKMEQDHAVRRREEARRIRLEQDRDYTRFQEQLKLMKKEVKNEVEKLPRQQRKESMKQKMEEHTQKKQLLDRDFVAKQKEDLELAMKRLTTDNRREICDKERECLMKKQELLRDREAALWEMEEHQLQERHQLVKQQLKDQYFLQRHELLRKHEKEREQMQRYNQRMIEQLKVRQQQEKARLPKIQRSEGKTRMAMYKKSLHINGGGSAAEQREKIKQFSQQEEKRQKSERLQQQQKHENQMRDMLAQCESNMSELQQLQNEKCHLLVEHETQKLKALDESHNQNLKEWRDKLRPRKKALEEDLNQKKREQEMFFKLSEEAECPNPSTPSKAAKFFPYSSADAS
T3 sequence (O14757 whole entry): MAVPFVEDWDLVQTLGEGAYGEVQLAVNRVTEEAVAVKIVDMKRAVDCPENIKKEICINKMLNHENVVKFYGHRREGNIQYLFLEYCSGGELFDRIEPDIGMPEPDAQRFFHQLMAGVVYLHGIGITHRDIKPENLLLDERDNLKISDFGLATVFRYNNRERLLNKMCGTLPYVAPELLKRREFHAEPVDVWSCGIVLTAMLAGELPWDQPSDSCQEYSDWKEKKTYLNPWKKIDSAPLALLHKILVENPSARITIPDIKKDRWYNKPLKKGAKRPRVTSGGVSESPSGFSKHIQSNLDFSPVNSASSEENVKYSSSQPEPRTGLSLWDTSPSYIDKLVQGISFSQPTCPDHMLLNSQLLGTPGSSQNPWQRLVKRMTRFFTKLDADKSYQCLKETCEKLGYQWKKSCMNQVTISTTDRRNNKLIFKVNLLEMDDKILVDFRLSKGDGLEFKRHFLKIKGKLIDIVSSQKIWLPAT
T7 sequence (P00533 25-1210): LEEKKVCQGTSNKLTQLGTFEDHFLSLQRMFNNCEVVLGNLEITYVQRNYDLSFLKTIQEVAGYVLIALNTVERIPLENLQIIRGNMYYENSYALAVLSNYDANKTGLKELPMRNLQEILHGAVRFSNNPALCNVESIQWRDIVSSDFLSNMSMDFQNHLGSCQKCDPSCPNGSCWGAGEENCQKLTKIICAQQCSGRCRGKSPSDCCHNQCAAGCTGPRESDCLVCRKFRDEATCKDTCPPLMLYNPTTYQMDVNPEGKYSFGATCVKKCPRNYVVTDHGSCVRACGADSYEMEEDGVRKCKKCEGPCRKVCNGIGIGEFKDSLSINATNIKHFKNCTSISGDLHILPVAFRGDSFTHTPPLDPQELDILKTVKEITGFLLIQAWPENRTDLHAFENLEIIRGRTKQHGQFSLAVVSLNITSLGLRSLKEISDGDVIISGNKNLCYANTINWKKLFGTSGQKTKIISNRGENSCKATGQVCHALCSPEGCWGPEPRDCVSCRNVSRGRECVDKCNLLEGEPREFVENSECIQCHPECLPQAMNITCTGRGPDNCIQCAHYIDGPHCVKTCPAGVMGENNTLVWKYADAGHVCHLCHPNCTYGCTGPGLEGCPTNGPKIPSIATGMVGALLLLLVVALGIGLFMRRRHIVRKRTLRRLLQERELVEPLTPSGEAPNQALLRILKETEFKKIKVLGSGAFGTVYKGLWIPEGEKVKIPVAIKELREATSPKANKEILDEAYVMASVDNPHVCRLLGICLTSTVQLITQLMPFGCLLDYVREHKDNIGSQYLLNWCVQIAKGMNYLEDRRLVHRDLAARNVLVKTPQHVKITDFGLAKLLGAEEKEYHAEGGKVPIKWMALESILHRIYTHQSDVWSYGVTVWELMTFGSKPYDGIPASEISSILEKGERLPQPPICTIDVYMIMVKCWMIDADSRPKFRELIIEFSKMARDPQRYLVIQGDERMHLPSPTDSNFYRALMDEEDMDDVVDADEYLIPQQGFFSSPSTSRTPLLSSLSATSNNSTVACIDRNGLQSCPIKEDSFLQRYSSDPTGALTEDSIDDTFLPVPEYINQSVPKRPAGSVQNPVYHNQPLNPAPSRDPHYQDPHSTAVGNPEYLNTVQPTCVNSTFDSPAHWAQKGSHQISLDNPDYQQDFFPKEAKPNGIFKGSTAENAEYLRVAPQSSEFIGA
T8 sequence (P68400 whole entry): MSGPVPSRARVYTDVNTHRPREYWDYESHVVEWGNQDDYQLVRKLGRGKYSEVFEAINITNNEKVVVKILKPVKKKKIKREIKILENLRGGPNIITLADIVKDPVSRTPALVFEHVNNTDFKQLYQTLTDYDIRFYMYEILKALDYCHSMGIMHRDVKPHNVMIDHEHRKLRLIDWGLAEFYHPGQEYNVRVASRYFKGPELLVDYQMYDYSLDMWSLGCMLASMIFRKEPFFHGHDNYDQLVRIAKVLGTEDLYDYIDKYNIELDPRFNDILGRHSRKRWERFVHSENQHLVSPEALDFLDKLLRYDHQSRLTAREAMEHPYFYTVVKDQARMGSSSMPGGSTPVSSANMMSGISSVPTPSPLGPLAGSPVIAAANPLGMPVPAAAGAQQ
T5 sequence (Q7KZI7 1-725 isoform Q7KZI7-4): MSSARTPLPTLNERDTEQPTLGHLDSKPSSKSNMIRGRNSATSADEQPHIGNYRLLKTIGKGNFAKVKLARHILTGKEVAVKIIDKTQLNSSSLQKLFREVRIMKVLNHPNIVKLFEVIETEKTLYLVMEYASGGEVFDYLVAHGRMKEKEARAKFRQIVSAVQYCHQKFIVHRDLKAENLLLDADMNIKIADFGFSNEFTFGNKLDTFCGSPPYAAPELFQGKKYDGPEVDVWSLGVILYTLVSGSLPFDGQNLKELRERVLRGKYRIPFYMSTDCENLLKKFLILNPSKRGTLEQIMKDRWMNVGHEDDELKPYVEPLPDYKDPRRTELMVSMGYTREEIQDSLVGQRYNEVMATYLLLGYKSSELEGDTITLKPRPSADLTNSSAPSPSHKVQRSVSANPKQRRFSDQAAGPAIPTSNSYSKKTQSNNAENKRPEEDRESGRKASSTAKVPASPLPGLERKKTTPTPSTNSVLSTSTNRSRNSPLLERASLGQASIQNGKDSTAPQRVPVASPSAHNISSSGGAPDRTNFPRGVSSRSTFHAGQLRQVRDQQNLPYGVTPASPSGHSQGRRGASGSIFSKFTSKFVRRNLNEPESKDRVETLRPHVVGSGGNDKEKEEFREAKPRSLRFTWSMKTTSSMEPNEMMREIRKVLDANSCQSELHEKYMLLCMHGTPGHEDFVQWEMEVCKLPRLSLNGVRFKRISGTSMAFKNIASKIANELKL
T1 sequence (P11362 22-822): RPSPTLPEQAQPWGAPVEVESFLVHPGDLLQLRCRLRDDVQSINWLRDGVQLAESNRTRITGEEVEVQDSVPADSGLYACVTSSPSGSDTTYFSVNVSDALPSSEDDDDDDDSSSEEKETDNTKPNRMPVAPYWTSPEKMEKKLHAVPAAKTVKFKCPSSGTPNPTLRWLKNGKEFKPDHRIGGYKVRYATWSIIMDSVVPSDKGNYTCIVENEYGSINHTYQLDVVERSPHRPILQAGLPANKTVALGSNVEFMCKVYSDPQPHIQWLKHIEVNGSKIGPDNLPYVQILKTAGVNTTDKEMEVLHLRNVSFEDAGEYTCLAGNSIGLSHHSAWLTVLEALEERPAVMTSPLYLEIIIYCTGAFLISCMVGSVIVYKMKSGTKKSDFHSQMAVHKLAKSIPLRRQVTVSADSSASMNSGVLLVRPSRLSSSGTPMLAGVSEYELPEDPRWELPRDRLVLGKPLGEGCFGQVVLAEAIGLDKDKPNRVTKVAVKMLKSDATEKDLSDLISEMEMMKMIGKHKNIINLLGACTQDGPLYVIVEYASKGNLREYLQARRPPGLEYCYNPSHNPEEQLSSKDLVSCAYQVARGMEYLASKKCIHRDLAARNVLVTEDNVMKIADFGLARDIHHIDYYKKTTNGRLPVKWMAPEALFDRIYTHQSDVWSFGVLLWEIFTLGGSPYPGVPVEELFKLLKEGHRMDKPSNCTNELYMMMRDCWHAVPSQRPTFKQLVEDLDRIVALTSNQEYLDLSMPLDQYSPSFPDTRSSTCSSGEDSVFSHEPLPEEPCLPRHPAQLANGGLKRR

Q: What does the source list for CCCCCCCCCCCCOC(=O)CCC(=O)N1CCN(CCCOc2cc3c(Nc4ccc(F)c(Cl)c4)ncnc3cc2OC)CC1 [Analogue-18, dodecyl 4-(4-(3-(4-(3-chloro-4-fluorophenylamino)-7-methoxyquinazolin-6-yloxy)propyl)piperazin-1-yl)-4-oxobutanoate]?
A: survivin protein expression [1]: significantly inhibited surviving protein expression; remaining activity at 10 µM [2]: 82%; toxicity effect on A549 cell line ([3]; 24 hours, in comparison with Iressa): best toxicity effect; also recorded: more effective on reducing cell viability than Iressa; toxicity effects ([3]; A549, 40 μM, 24 hours): more than 99%; increased toxicity effect ([3]; A549 cell line, 40 μM): 15-20 times; viability at 10 µM ([3]; Homo sapiens, A549 cell line, 10 μM, 24 hours, MTT): 95.5%; viability at 20 µM ([3]; Homo sapiens, A549 cell line, 20 μM, 24 hours, MTT): 86.8%; viability at 40 µM ([3]; Homo sapiens, A549 cell line, 40 μM, 24 hours, MTT): 5.7%; viability at 60 µM ([3]; Homo sapiens, A549 cell line, 60 μM, 24 hours, MTT): 2%; viability at 80 µM ([3]; Homo sapiens, A549 cell line, 80 μM, 24 hours, MTT): 2.3%; remaining activity at 10 µM [4]: 87%; cleaved form of PARP [5]: induced the cleaved form of PARP; remaining activity at 10 µM [6]: 69%; fractions of G1, S and G2/M phases ([7]; 0 to 40 μM): does not significantly alter; average percentage of sub-G1 fractions ([7]; 40 μM): 66.7%; remaining activity at 10 µM [8]: 43%; viability at 24 h [9]: > 30%; remaining activity at 10 µM [10]: 84%; remaining activity at 10 µM [11]: 87%; remaining activity at 10 µM [12]: -2%; remaining activity at 10 µM [13]: 76%
